Values of other authors in patent publication US12083078B2, “Parenteral cannabinoid formulations and uses thereof” (priority 2020, dated 2024).

Settings: buffering pH range

Row | Structure (SMILES) | pH range
1 | CC(=O)O [Acetic Acid] | 4-6
2 | O=C(O)CC(O)(CC(=O)O)C(=O)O [Citric Acid] | 3-7
3 | CC(O)C(=O)O (stereo not shown) [Lactic Acid] | 3-4.5
4 | O=P(O)(O)O [Sodium Phosphate] | 8-8
